# Columns and labels:
# [1] = tested on: MCF7 xenograft tumors; assay: MCF7 xenograft tumor study after estrogen pellet removal; type: in vivo, mice
# Description: Xenograft tumor analysis: Estrogen-stimulated MCF7 tumors were initiated in the axial mammary gland of 6-week old estrogen-treated (0.72 mg/60 days pellet sc, Innovative Research of America) ovariectomized female NU/NU mice (in-house colony) by serial transfer and were measured as described (Wardell et al., (2013) Clin Cancer Res 19 (9):2420-2431). […] FIG. 9: At ˜0.1 cm^3 tumor volume, the estrogen pellet was surgically removed, and mice were randomized (n=6-10) to daily treatment with vehicle or RAD1901 (0.3-10 mg/kg). Treatments were formulated as above. Animal tissues were processed and analyzed as described (Wardell et al., (2013) Clin Cancer Res 19 (9):2420-2431).
# As shown above, high dose RAD1901 (20 mg/kg) inhibited the growth of ESR1-dependent MCF7-cell derived tumors in mice. However, the observation that uterine wet weight was increased in mice treated with doses of RAD1901 that were lower than that required to effect ESR1 turnover highlighted the need to examine whether a similar biphasic pharmacology was manifest in breast tumors. To further evaluate the pharmacology of RAD1901, a second xenograft tumor study was conducted in which MCF7 tumors were established under estrogen stimulation. For FIG. 9A, MCF7 xenograft tumors were initiated in ovariectomized female nu/nu mice as in FIG. 5. Estrogen pellets were surgically removed when tumors reached ˜0.1 cm^3 volume, and animals (n=6-10) then received daily treatment with vehicle or RAD1901 (RAD), (0.3-10 mg/kg sc). Mean tumor volume+/−SEM per day of treatment was presented. Significance as compared to the vehicle (2-way ANOVA of matched values followed by Bonferroni comparison) was indicated (*p<0.05, **p<0.0005). For FIG. 9B, uterine wet weight at sacrifice (measured as in FIG. 8) and % change in tumor volume (as compared to size at randomization) calculated using the final measurement recorded for mice in (FIG. 9A) are graphically presented. For FIGS. 9C-9D, expression of ESR1 target genes in tumors was analyzed essentially as in FIG. 5. Estrogen only samples from FIG. 5D were included for comparison. For FIG. 9E, ESR1 levels in tumor tissues were analyzed as in FIG. 8 and were normalized to similarly detected Lamin-A. Significant downregulation (*p<0.05) was determined by ANOVA followed by Bonferroni comparison.
# [2] = target: T1, human estrogen receptor beta (ESR2) (Homo sapiens, UniProt Q92731); assay: ERE-luciferase reporter assay in transiently transfected SKBR3 cells (ESR2); type: cell-based; settings: ESR2 isoform, E2 10 nM, RAD1901 10^-10-10^-6 M, 24 hours
# T1 construct: expressed in transfected cells; host or cells: SKBR3
# T1 sequence (Q92731 whole entry, canonical isoform): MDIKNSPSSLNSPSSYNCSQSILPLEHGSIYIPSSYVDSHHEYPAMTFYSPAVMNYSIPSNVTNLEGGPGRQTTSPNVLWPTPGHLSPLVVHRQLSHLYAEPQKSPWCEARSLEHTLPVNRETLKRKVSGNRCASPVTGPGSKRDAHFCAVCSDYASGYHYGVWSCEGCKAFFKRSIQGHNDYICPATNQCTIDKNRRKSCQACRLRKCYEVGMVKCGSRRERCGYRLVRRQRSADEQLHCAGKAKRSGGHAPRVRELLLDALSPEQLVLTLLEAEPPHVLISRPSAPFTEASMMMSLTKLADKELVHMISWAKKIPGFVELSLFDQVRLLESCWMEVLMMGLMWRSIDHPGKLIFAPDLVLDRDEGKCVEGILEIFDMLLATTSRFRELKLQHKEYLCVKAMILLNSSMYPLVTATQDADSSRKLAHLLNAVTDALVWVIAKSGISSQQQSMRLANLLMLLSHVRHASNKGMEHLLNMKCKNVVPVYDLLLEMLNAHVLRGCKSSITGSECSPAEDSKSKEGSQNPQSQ
# Description: The ability of RAD1901 (FIG. 5A) to modulate the […] estradiol (E2) dependent transcriptional activity of the human estrogen receptor alpha (ESR1) and human estrogen receptor beta (ESR2) was assessed in transiently transfected SKBR3 cells using a synthetic reporter gene. […] For FIG. 5B, SKBR3 cells were plated in phenol red free media supplemented with charcoal stripped FBS (CFS) 24 hours prior to transfection with an ERE-luciferase reporter together with ESR1 or ESR2 expression vectors. 24 hours after transfection, cells were treated with E2 (10 nM) together with RAD1901 (10^−10-10^−6 M) for 24 hours prior to harvest and analysis of luciferase activity normalized to co-transfected β-galactosidase control. […] For FIG. 5D, MCF7 cells were plated in phenol red free media supplemented with CFS 24 hours prior to treatment, and were treated with 10^−9 M E2 as well as with the indicated ligands (10^−11-10^−6 M) on days 1, 4, and 6 of an 8 day proliferation assay. DNA content as assessed by fluorescence was measured as a surrogate for cell proliferation. The relative increase in DNA fluorescence was calculated by normalizing to baseline values detected in a duplicate plate of cells that was harvested on day 1 prior to the initial treatment. […] For FIG. 5F, expression of ESR1 target genes in tumors was analyzed essentially as in (C).
# [3] = tested on: MCF7 cells; assay: MCF7 proliferation in response to E2 or insulin; type: cell-based; settings: SERMs and SERDs 10^-6 M, insulin 2×10^-9 M
# Description: The expression of ESR1 target genes responsive to (FIG. 10A) agonists, (FIG. 10B) primarily SERMs, or (FIG. 10C) SERMs and agonists was analyzed as in FIG. 5. Relative changes of these and additional target genes designed to evaluate dose dependent response to RAD1901 are presented in FIG. 11. Significant target gene regulation (*p<0.05) as compared to the vehicle control was detected by 2 way ANOVA followed by Fisher's LSD (Graphpad Prism 6). […] Triplicate wells of SKBR3 cells were transfected with plasmids expressing ESR1 fused to VP16 together with Gal4DBD alone (control) or Gal4DBD fused to ESR1 interacting peptides noted on the horizontal axis. Cells were then treated with the indicated ESR1 ligands (10^−7 M unless otherwise indicated). Interaction of ESR1 with the Gal4DBD peptide constructs was detected through activation of a Gal4-responsive luciferase reporter construct and was normalized to detected β-galactosidase activity expressed in a constitutive manner using a second vector. Normalized response was expressed as fold increase over the detected level of interaction between Gal4DBD alone and ESR1-VP16 in the absence of ligand (Veh). For FIG. 10E, the effect of SERMs and SERDs (10^−6 M) on the proliferation of MCF7 cells in response to E2 (10^−9 M) or insulin (2×10^−9 M) was evaluated as in FIG. 5. Statistically similar treatments (2-way ANOVA followed by Bonferroni comparison) are indicated by letters. […] The expression of ESR1 target genes responsive to (A) agonists, (B) primarily SERMs, or (C) SERMs and agonists was analyzed using RT qPCR following RNA isolation. mRNA expression was normalized (ΔΔCT analysis) to the similarly detected 36B4 housekeeping. The profiles presented in dendogram format were analyzed with the Ward hierarchical clustering algorithm (JMP 11) using standardized data.
compound,measurement,setting,value
"CCNCCc1ccc(CN(CC)c2cc(OC)ccc2[C@@H]2CCc3cc(O)ccc3C2)cc1 [RAD1901, (R)-6-{2-{ethyl[4-(2-ethylaminoethyl)benzyl]amino}-4-methoxyphenyl}-5,6,7,8-tetrahydronaphthalen-2-ol]",ESR1 levels in tumor extracts (immunoblot),[1]; 0.3-10 mg/kg,dose-dependent downregulation
same,final tumor size,[1]; 1 or 3 mg/kg groups,significantly increased
same,tumor growth after estrogen withdrawal,[1]; 1 or 3 mg/kg sc daily,significant stimulation of tumor growth
same,expression of AGR2 in tumors,[1]; 1 or 3 mg/kg treatment groups,observed
same,expression of classical ESR1 target genes such as PGR in tumors,[1]; 1 or 3 mg/kg treatment groups,not observed
same,tumor growth after estrogen withdrawal,[1]; higher dose (10 mg/kg) sc daily,not apparent at the higher dose
same,uterine wet weight at sacrifice,"[1]; nu/nu mice, 0.3-10 mg/kg sc daily",stimulation of uterine weight was apparent in mice treated with only the 0.3 mg/kg dose
same,inhibition of E2-dependent activation of an ERE-luciferase reporter,[2],effectively inhibited
same,insulin-stimulated proliferation,[3],without effect

# Source: US10420734B2, “Method of treating cancer using selective estrogen receptor modulators” (Duke University, priority 2014, dated 2019)
